Measured values taken from patent US8450301B2, “Piperazine compounds with a herbicidal action” (BASF SE, priority 2006, dated 2013).

Columns and labels:
Type in all cases: in vivo
[1] = test system: Echinochloa crus galli (ECHCG); experiment: greenhouse experiment, pre-emergence treatment; conditions: application rate 3 kg/ha, scale 0 to 100
Text: (§1) The culture containers used were plastic flowerpots containing loamy sand with approximately 3.0% of humus as the substrate. The seeds of the test plants were sown separately for each species.
(§2) For the pre-emergence treatment, the active ingredients, which had been suspended or emulsified in water, were applied directly after sowing by means of finely distributing nozzles. The containers were irrigated gently to promote germination and growth and subsequently covered with transparent plastic hoods until the plants had rooted. This cover caused uniform germination of the test plants, unless this has been impaired by the active ingredients.
(§3) Depending on the species, the plants were kept at 10-25° C. or 20-35° C. The test period extended over 2 to 4 weeks. During this time, the plants were tended, and their response to the individual treatments was evaluated.
(§4) Evaluation was carried out using a scale from 0 to 100. 100 means no emergence of the plants, or complete destruction of at least the aerial moieties, and 0 means no damage, or normal course of growth. A good herbicidal activity is given at values of at least 70 and a very good herbicidal activity is given at values of at least 85.

[2] = test system: Setaria faberi (SETFA); experiment: greenhouse experiment, post-emergence treatment; conditions: application rate 3 kg/ha, scale 0 to 100
Text: as §1
(§5) For the post-emergence treatment, the test plants were first grown to a height of 3 to 15 cm, depending on the plant habit, and only then treated with the active ingredients which had been suspended or emulsified in water. For this purpose, the test plants were either sown directly and grown in the same containers, or they were first grown separately as seedlings and transplanted into the test containers a few days prior to treatment.
as §3, §4

[3] = test system: SETIT; experiment: greenhouse experiment, pre-emergence treatment; conditions: application rate 3 kg/ha, scale 0 to 100
Text: as §1, §2, §3, §4

[4] = test system: Setaria faberi (SETFA); experiment: greenhouse experiment, pre-emergence treatment; conditions: application rate 3 kg/ha, scale 0 to 100
Text: as §1, §2, §3, §4

[5] = test system: Alopecurus myosuroides (ALOMY); experiment: greenhouse experiment, post-emergence treatment; conditions: application rate 3 kg/ha, scale 0 to 100
Text: as §1, §5, §3, §4

[6] = test system: Avena fatua (AVEFA); experiment: greenhouse experiment, post-emergence treatment; conditions: application rate 3 kg/ha, scale 0 to 100
Text: as §1, §5, §3, §4

[7] = test system: Apera spica-venti (APESV); experiment: greenhouse experiment, pre-emergence treatment; conditions: application rate 0.5 kg/ha, scale 0 to 100
Text: as §1, §2, §3, §4

[8] = test system: Amaranthus retroflexus (AMARE); experiment: greenhouse experiment, pre-emergence treatment; conditions: application rate 0.5 kg/ha, scale 0 to 100
Text: as §1, §2, §3, §4

SMILES	herbicidal pre-emergence activity against ECHCG [1]	herbicidal post-emergence activity against SETFA [2]	herbicidal pre-emergence activity against SETIT [3]	also measured
CC(C)=CCN1C(=O)C(Cc2ccccc2[N+](=O)[O-])N(C)C(=O)C1Cc1ccccc1 (single isomer, unassigned) [A.2.64]	good to very good	good to very good		
CC(C)OC(=O)CN1C(=O)C(Cc2ccccc2[N+](=O)[O-])N(C)C(=O)C1Cc1ccccc1 (single isomer, unassigned) [A.2.65]		good to very good		
CN1C(=O)C(C(OS(C)(=O)=O)c2ccccc2[N+](=O)[O-])N(C)C(=O)C1Cc1ccccc1 (single isomer, unassigned) [A.2.265]	good to very good	good to very good	good to very good	
CN1C(=O)C(C(OS(C)(=O)=O)c2ccccc2[N+](=O)[O-])N(C)C(=O)C1Cc1ccccc1 (single isomer, unassigned) [A.2.267]	good to very good	good to very good	good to very good	
CN1C(=O)C(C(O[Si](C)(C)C)c2ccccc2[N+](=O)[O-])N(C)C(=O)C1Cc1ccccc1 (single isomer, unassigned) [A.2.271]			good to very good	
CC(Oc1ccc(CC2C(=O)N(C)C(Cc3ccccc3)C(=O)N2C)c([N+](=O)[O-])c1)C(=O)O (centres unmarked) [A.1.13]			good to very good	
CN1C(=O)C(Cc2ccccc2C#N)N(C)C(=O)C1Cc1ccccc1 (centres unmarked) [A.2.81]				herbicidal pre-emergence activity against SETFA [4]: very good (a very good herbicidal activity is given at values of at least 85)
CN1C(=O)C(Cc2ccccc2NS(C)(=O)=O)N(C)C(=O)C1Cc1ccccc1 (centres unmarked) [A.2.105]	good to very good			herbicidal post-emergence activity against ALOMY [5]: very good (a very good herbicidal activity is given at values of at least 85); herbicidal post-emergence activity against AVEFA [6]: very good (a very good herbicidal activity is given at values of at least 85)
CN1C(=O)C(Cc2c(Br)cccc2[N+](=O)[O-])N(C)C(=O)C1Cc1ccccc1 (centres unmarked) [A.2.133]	good to very good	good to very good		
C#Cc1ccccc1CC1C(=O)N(C)C(Cc2ccccc2)C(=O)N1C (centres unmarked) [A.2.135]	good to very good	good to very good	good to very good	
CC(=O)OC(c1ccccc1[N+](=O)[O-])C1C(=O)N(C)C(Cc2ccccc2)C(=O)N1C (centres unmarked) [A.2.251]		good to very good		
CN1C(=O)C(C(OCc2ccccc2)c2ccccc2[N+](=O)[O-])N(C)C(=O)C1Cc1ccccc1 (centres unmarked) [A.2.255]		good to very good		
Cc1cc(-c2ccccc2CC2C(=O)N(C)C(Cc3ccccc3)C(=O)N2C)on1 (centres unmarked) [A.2.273]	good to very good	good to very good	good to very good	
C=Cc1ccccc1CC1C(=O)N(C)C(Cc2ccccc2)C(=O)N1C (centres unmarked) [A.2.274]	good to very good	good to very good		
CCS(=O)(=O)OC(c1ccccc1[N+](=O)[O-])C1C(=O)N(C)C(Cc2ccccc2)C(=O)N1C (centres unmarked) [A.2.275]	good to very good	good to very good		
COS(=O)(=O)C(c1cccnc1Br)C1C(=O)N(C)C(Cc2ccccc2)C(=O)N1C (centres unmarked) [A.5.16, methyl (5-benzyl-1,4-dimethyl-3,6-dioxopiperazin-2-yl)-(2-bromopyridin-3-yl)methanesulfonate]			good to very good	
COS(=O)(=O)C(c1ccccc1[N+](=O)[O-])C1C(=O)N(C)C(Cc2cccs2)C(=O)N1C (centres unmarked) [A.5.17, methyl [1,4-dimethyl-3,6-dioxo-5-(thiophen-2-ylmethyl)piperazin-2-yl]-(2-nitrophenyl) methanesulfonate]				herbicidal pre-emergence activity against APESV [7]: good (A good herbicidal activity is given at values of at least 70); herbicidal pre-emergence activity against AMARE [8]: very good (a very good herbicidal activity is given at values of at least 85)
